Experimental data: patent publication US12178791B2, “Haloallylamine sulfone derivative inhibitors of lysyl oxidases and uses thereof” (Syntara Limited, priority 2018, dated 2024)
Entries after “also recorded” stand apart in the source; their conditions may differ. Where a name gives a salt, the structure may show the parent alone.

How the values were obtained:
rhSSAO = rhSSAO (Homo sapiens (Human), UniProt Q16853); test: Measurement of substrate turnover by SSAO; assay type: biochemical; conditions: compound 2.5 mM, relative to background (dimethyl sulfoxide only)
Description: In brief, the assay employed determines the substrate propensity of a compound relative to background (dimethyl sulfoxide only). Compound oxidation by rhSSAO was measured by fluorometric assay (Holt and Palcic, 2006). Briefly, rhSSAO was incubated for 2 hours at 37° C. in HEPES buffer before the addition of an equal volume of Amplex Red ([…]), horseradish peroxidase (4 U/ml), and Compound (2.5 mM) in the same buffer. The kinetics of the formation of resorufin was measured immediately using Optima reader (BMG Labtech GmbH, Ortenburg, Germany), at 37° C.

[1] = tested on: scar tissue after excision of dermal tissue; test: Rodent injury model; assay type: in vivo, mice; conditions: 1% solution topical
Description: Mice received injury by excision of dermal tissue. In the treatment group, 1% Compound 1 solution was applied topically from 24 hours post injury to 1 week post injury. Wounds were then left to heal for an additional week. Mice were euthanized at 14 days post injury and the tissue was analyzed for collagen I content, and changes in gross morphology and histology.

lysyl oxidase = test: Target engagement: lysyl oxidase activity in the aorta; assay type: in vivo, Wistar rats
Description: Sample preparation: All preparation activities were performed on ice, with buffers in presence of proteases inhibitors (PMSF: Sigma P7626, 0.25 mM, Aprotinin: Sigma A6279, 1 μL per mL) (Methods in Cell Biology, 2018; 143: 147-156). The surrounding adventitia and muscle/fat from the frozen aorta sample was removed in ice-cold Wash Buffer (0.15 M NaCl, 50 mM sodium borate, pH=8.0, with protease inhibitors) using fine forceps, under a dissecting microscope. The aorta was blotted on a Kimwipe and weighed in a 1.5 mL Eppendorf tube and left on ice. After snap-freezing the aorta in liquid nitrogen, a mortar and the pestle (stored at −80° C.) was used to pulverize the tissue. The pulverized tissue was transferred to a designated tube containing metal beads, 10× v/w Wash Buffer+protease inhibitors. The tissues was homogenized for 5 seconds using a bead-mill. The homogenate was centrifuged at 10,000×g for 10 minutes at 4° C. and the supernatant was discarded. Homogenization and washing steps were repeated twice more. […]
Assay: Pargyline (final concentration 0.5 mM) and mofegiline (final concentration 1 μM) were added to the samples. […] Plate fluorescence was then measured every 2.5 min (Ex: 544 nm/Em: 590 nm/gain: 1260; 37° C.) on Fluostar™.
[…] The responses were normalised to the activity measured in animals treated with saline (control).

kidney fibrosis (UUO) = test: Unilateral ureteral obstruction (UUO) model of acute kidney fibrosis; assay type: in vivo, mice; conditions: 10 mg/kg daily orally, 14 days
Description: A 14-day unilateral ureteric obstruction (UUO) model of acute kidney fibrosis in mice was conducted to mimic the different stages of obstructive nephropathy leading to tubulointerstitial fibrosis in an accelerated manner UUO surgery was performed by ligation of the left ureter and induced decrease of left kidney thickness and atrophy (indicated by a significant decrease in kidney weight and ratio of kidney/body weight when compared to the contralateral side) as well as a significant increase in kidney fibrosis. Treatment groups received Compound 33 (10 mg/kg daily) orally for the duration of the study. Compound 33 increased kidney weight and thickness and reduced the area of fibrosis as measured by Picrosirius Red (FIG. 9). Captopril (˜32 mg/kg/day in drinking water) was used as a positive control.

[2] = tested on: CCl4 hepatic fibrosis / 4t1 metastasis; test: CCl4 induced liver fibrosis with orthotopic 4t1 breast cancer cells (fibrosis associated metastasis); assay type: in vivo, BALB/c mice; conditions: 20 mg/kg daily ip
Description: Hepatic fibrosis was induced by treated of BALB/c mice twice weekly with 1 mg/kg carbon tetrachloride (CCl4) for a period of 8 wks.

Sequence of rhSSAO (Q16853 whole entry): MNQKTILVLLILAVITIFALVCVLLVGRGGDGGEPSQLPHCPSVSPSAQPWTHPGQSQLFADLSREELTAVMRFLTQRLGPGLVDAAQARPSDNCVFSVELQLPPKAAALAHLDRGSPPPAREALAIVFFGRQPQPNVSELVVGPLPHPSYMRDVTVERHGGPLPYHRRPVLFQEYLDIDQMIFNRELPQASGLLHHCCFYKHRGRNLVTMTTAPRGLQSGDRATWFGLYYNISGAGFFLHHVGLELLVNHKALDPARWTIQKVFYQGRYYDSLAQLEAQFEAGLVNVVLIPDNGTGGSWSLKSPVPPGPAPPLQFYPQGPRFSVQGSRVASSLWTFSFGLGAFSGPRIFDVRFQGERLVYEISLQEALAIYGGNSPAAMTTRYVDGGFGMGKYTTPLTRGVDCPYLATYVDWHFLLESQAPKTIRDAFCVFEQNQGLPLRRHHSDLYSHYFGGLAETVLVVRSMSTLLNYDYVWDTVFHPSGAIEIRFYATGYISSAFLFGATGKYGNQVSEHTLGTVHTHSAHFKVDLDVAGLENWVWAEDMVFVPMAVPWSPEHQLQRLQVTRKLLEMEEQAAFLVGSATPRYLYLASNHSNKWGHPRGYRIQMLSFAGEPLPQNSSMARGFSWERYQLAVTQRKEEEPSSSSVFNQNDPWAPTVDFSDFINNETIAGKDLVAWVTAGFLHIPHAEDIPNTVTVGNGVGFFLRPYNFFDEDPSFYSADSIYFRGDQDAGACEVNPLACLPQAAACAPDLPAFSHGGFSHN

Row | SMILES | Substrate activity for rhSSAO (rhSSAO) | Collagen I quantity (LCMS, normalized for protein content) ([1]; 24 hours to 1 week post injury, analysis 14 days post injury, vs control, hydrochloride) | Histology: collagen bundles in scar tissue ([1]; 14 days post injury) | half-life of recovery of lysyl oxidase activity (aorta) (lysyl oxidase; single oral dose) | lysyl oxidase enzymatic activity in rat aorta (lysyl oxidase; single oral dose at 5, 10 or 30 mg/kg, vs untreated control) | area of fibrosis as measured by Picrosirius Red (kidney fibrosis (UUO)) | kidney weight and thickness (kidney fibrosis (UUO)) | collagen cross-links in the liver [2] | primary tumor growth or collagen cross-links (primary tumor) [2] | liver fibrosis ([2]; 8 wks CCl4) | metastatic load in the liver ([2]; dihydrochloride)
1 | NC/C=C(\F)CS(=O)(=O)c1ccccc1 [Compound 1, (Z)-3-fluoro-4-(phenylsulfonyl)but-2-en-1-amine hydrochloride] | no significant turnover | reduction in collagen; also recorded: reduced | decreased density of bundles | – | – | – | – | – | – | – | –
2 | NC/C=C(\F)CS(=O)(=O)c1cccc2cccnc12 [Compound 33, (Z)-3-fluoro-4-(quinolin-8-ylsulfonyl)but-2-en-1-amine dihydrochloride] | – | – | – | 24 h | dose-dependent block | reduced | increased | significantly reduced | No differences | significantly reduced | reduce; also recorded: significantly reduced
